The values that follow come from PubChem BioAssay (NCI).

SMILES strings stand for the structures.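 Tested at 5 concentrations; 48 h exposure; 96-well plates; endpoints linearly interpolated, else capped at highest concentration. At the GI50, growth is halved. The concentration for full growth arrest is given as TGI.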 A value given as a limit tells only on which side of the number the result lay.

Some test systems named below: SK-MEL-5 melanoma; 786-0 renal; NCI-H23 lung; SF-539 CNS; EKVX NSCLC; U251 CNS; SNB-75 CNS; UO-31 renal; MDA-MB-435; CCRF-CEM leukemia.
Assay in all cases: inhibition of tumour cell growth, NCI panel, 48 h

Regarding `N#CC1=C(N)NC(=S)NC12Nc1ccccc1S2` (stereo not given), the GI50 in the experiment on SK-MEL-5 melanoma was 19.6 µM; in the experiment on 786-0 renal, over 100 µM; in the experiment with NCI-H23 lung it was 31.4 µM; with SF-539 CNS it was 14.7 µM; in the experiment on EKVX NSCLC it was 3.71 µM; in the experiment on U251 CNS it was 21.4 µM. Further, the GI50 in the experiment on SNB-75 CNS is 30.4 µM; in the experiment with UO-31 renal, 35.8 µM; with MDA-MB-435 it was 19.2 µM; in the experiment with CCRF-CEM leukemia, 15.1 µM. Further, the TGI with SK-MEL-5 melanoma is 54.9 µM; in the experiment with 786-0 renal, over 100 µM; in the experiment with NCI-H23 lung it was over 100 µM; with SF-539 CNS, 41.4 µM; with EKVX NSCLC, 37.9 µM; in the experiment on U251 CNS, 79.8 µM. In addition, the TGI with SNB-75 CNS is over 100 µM; with UO-31 renal, over 100 µM; in the experiment on MDA-MB-435, 47.6 µM; in the experiment on CCRF-CEM leukemia, 53.3 µM.

Regarding `C=CC(=O)N1C[C@@H]2CCOc3c(Cl)c(-c4c(O)cccc4F)c(F)c4ncnc(c34)N2C[C@H]1C`, the GI50 was 13.1 µM in the experiment with SK-MEL-5 melanoma; 14.7 µM in the experiment with 786-0 renal; 0.0328 µM in the experiment on NCI-H23 lung; 12.9 µM in the experiment on SF-539 CNS; 14.4 µM in the experiment on EKVX NSCLC; 15 µM in the experiment on U251 CNS. Moreover, the GI50 in the experiment with SNB-75 CNS is 10.8 µM; in the experiment with UO-31 renal it was 12.3 µM; with MDA-MB-435 it was 11.8 µM; in the experiment with CCRF-CEM leukemia, 11.5 µM. The TGI was 25.9 µM with SK-MEL-5 melanoma; 29.4 µM in the experiment on 786-0 renal; 13.1 µM in the experiment with NCI-H23 lung; 25.8 µM with SF-539 CNS; 27.8 µM in the experiment on EKVX NSCLC; 36.2 µM in the experiment on U251 CNS. Further, the TGI is 23.5 µM with SNB-75 CNS, 25.3 µM in the experiment with UO-31 renal, 29.6 µM in the experiment on MDA-MB-435 and over 100 µM in the experiment on CCRF-CEM leukemia.

As to `COc1cc([N+](=O)[O-])c(OC)cc1-c1nc2sc(C)cn2c1/C(N)=N/C(=N)N`, the GI50 in the experiment with SK-MEL-5 melanoma is 28.3 µM; with 786-0 renal, over 100 µM; in the experiment on NCI-H23 lung, 89.6 µM; with SF-539 CNS it was 27.3 µM; in the experiment on EKVX NSCLC it was 15.1 µM; in the experiment on U251 CNS it was 6.49 µM. In addition, the GI50 with SNB-75 CNS was over 100 µM; in the experiment with UO-31 renal, 38.3 µM; in the experiment with MDA-MB-435, 16.1 µM; in the experiment with CCRF-CEM leukemia, 18 µM. Moreover, the TGI in the experiment on SK-MEL-5 melanoma is over 100 µM; in the experiment on 786-0 renal, over 100 µM; in the experiment on NCI-H23 lung, over 100 µM; with SF-539 CNS it was over 100 µM; in the experiment with EKVX NSCLC it was 50.9 µM; in the experiment with U251 CNS it was over 100 µM. Further, the TGI in the experiment with SNB-75 CNS, with UO-31 renal, in the experiment on MDA-MB-435 and with CCRF-CEM leukemia was over 100 µM throughout.

Regarding `CCOC(=O)C1=C(C)NC(=O)NC1CN1C(=O)c2ccccc2C1=O` (stereo not given), the GI50 with SK-MEL-5 melanoma, in the experiment on 786-0 renal, in the experiment on NCI-H23 lung, in the experiment with SF-539 CNS, in the experiment on EKVX NSCLC and with U251 CNS was over 100 µM throughout. Further, the GI50 with SNB-75 CNS, with UO-31 renal, in the experiment with MDA-MB-435 and in the experiment with CCRF-CEM leukemia was over 100 µM in each case. Also, the TGI in the experiment on SK-MEL-5 melanoma, with 786-0 renal, with NCI-H23 lung, with SF-539 CNS, in the experiment on EKVX NSCLC and with U251 CNS was over 100 µM in each case. Also, the TGI in the experiment on SNB-75 CNS, with UO-31 renal, in the experiment on MDA-MB-435 and with CCRF-CEM leukemia was over 100 µM each time.

On to `COc1ccc(NC2=C(I)C(=O)c3ncccc3C2=O)cc1`, for which the GI50 in the experiment with SK-MEL-5 melanoma was 0.347 µM; in the experiment on 786-0 renal, 1.85 µM; in the experiment on NCI-H23 lung it was 0.327 µM; in the experiment on SF-539 CNS, 1.41 µM; with EKVX NSCLC, 1.73 µM; in the experiment with U251 CNS, 0.673 µM. Further, the GI50 in the experiment with SNB-75 CNS was 1.4 µM; in the experiment with UO-31 renal, 0.85 µM; in the experiment on MDA-MB-435 it was 0.253 µM; in the experiment on CCRF-CEM leukemia, 2.04 µM. Besides, the TGI in the experiment with SK-MEL-5 melanoma worked out at 1.42 µM; in the experiment with 786-0 renal, 4.74 µM; in the experiment with NCI-H23 lung, 1.68 µM; in the experiment with SF-539 CNS it was 2.75 µM; in the experiment with EKVX NSCLC it was 3.68 µM; in the experiment with U251 CNS, 2.12 µM. In addition, the TGI was found to be 2.77 µM in the experiment with SNB-75 CNS, 2.21 µM in the experiment with UO-31 renal, 0.628 µM in the experiment with MDA-MB-435 and 6.55 µM in the experiment with CCRF-CEM leukemia.

On to `CN(C)CC(=O)Nc1ccc2ncnc(Nc3ccc(Oc4cccc(C(F)(F)F)c4)c(Cl)c3)c2c1`, for which the GI50 with SK-MEL-5 melanoma was 1.69 µM; with 786-0 renal it was 1.55 µM; with NCI-H23 lung, 3.79 µM; in the experiment with SF-539 CNS, 1.73 µM; with EKVX NSCLC, 1.7 µM; with U251 CNS it was 1.79 µM. Besides, the GI50 in the experiment with SNB-75 CNS was 1.33 µM; in the experiment on UO-31 renal, 0.951 µM; with MDA-MB-435, 1.66 µM; in the experiment with CCRF-CEM leukemia, 2.52 µM. The TGI in the experiment with SK-MEL-5 melanoma amounted to 3.09 µM; in the experiment with 786-0 renal, 2.91 µM; in the experiment on NCI-H23 lung, 14.8 µM; with SF-539 CNS, 3.18 µM; in the experiment with EKVX NSCLC it was 8.05 µM; with U251 CNS, 3.99 µM. The TGI with SNB-75 CNS is 2.82 µM; in the experiment on UO-31 renal, 2.32 µM; with MDA-MB-435 it was 3.14 µM; with CCRF-CEM leukemia, 10.4 µM.

For the compound `CC1=C(C)C(=O)O[C@@H]([C@](C)(O)[C@]2(O)CC[C@@]3(O)[C@@H]4C[C@H](O)[C@]5(O)[C@@H](O)C=CC(=O)[C@]5(C)[C@H]4CC[C@]23C)C1`, the TGI in the experiment with SK-MEL-5 melanoma, with 786-0 renal, with NCI-H23 lung, in the experiment with SF-539 CNS, in the experiment on EKVX NSCLC and in the experiment with U251 CNS was over 100 µM each time. Moreover, the TGI in the experiment on SNB-75 CNS was over 100 µM; with UO-31 renal, over 100 µM; in the experiment on MDA-MB-435, over 100 µM; with CCRF-CEM leukemia, 89.5 µM.

For `O=Nc1c(-c2c(O)[nH]c3cc(Br)ccc23)[nH]c2ccccc12`, the GI50 was 0.723 µM in the experiment on SK-MEL-5 melanoma; 1.22 µM with 786-0 renal; 1.63 µM with NCI-H23 lung; 0.734 µM in the experiment on SF-539 CNS; 1.3 µM in the experiment on EKVX NSCLC; 1.87 µM in the experiment with U251 CNS. Also, the GI50 in the experiment on SNB-75 CNS is 0.285 µM; in the experiment with UO-31 renal it was 0.334 µM; in the experiment with MDA-MB-435, 1.61 µM; in the experiment on CCRF-CEM leukemia it was 2.53 µM. Moreover, the TGI amounted to 1.99 µM in the experiment with SK-MEL-5 melanoma; 4.4 µM in the experiment with 786-0 renal; 4.28 µM in the experiment with NCI-H23 lung; 2.88 µM in the experiment on SF-539 CNS; 3.22 µM in the experiment with EKVX NSCLC; 8.52 µM in the experiment with U251 CNS. In addition, the TGI in the experiment on SNB-75 CNS is 2.96 µM; with UO-31 renal it was 2.03 µM; in the experiment with MDA-MB-435, 3.01 µM; in the experiment with CCRF-CEM leukemia, over 100 µM.
